# Measurements taken from patent publication US10246414B2, “Allosteric modulators of CB1 cannabinoid receptors” (Northeastern University, priority 2012, dated 2019).
# pEC50: −log10 of the molar value.
# Tested on: extracellular dopamine levels in nucleus accumbens
# Test: In vivo microdialysis, dopamine in shell of nucleus accumbens
# Design: species or system Sprague-Dawley male rats
# Conditions: 30 mg/kg IP, rat nucleus accumbens shell, dialysate samples every 20 minutes; ANOVA p=0.325, NS
# Protocol: Concentric microdialysis probes with 2 mm-long dialysis membranes were prepared as described previously (Pontieri, Tanda & DiChiara 1995). Sprague-Dawley male rats were anesthetized with Equithesin and probes were surgically implanted in the shell of nucleus accumbens (coordinates with respect to bregma: anterior, +2.2; lateral, −1.0; vertical −8.0 from dura). Ringer's solution (147 mM NaCl, 2.2 mM CaCl2, 4.0 mM KCl) was pumped through the dialysis probe at a constant flow rate of 1 uL/minute. […] Collection of dialysate samples started after 20 minutes, with samples collected every 20 minutes and immediately analyzed by a high-performance liquid chromatography system coupled to electrochemical detection to quantify dopamine.
# Results are presented as group means (±SEM). Microdialysis data were analyzed using two-way ANOVA.
row,Compound,change in extracellular dopamine levels after injection
1,"O=[N+]([O-])CC(c1ccccc1)c1c(-c2ccccc2)[nH]c2ccccc12 (racemic) [Compound 1, 3-(2-Nitro-1-phenylethyl)-2-phenyl-1H-indole, reference compound]",no significant change

# Target: CB1 cannabinoid receptors (CNR1 cAMP Hunter cell line) (Homo sapiens, UniProt P21554)
# Test: cAMP Hunter (DiscoveRx HitHunter cAMP XS+) allosteric modulation assay with CP55,940 at EC20
# Type: cell-based
# Conditions: not given
# Protocol: Once it was established that the cells were healthy and growing normally, cells were passaged from flasks using cell dissociation reagent buffer and seeded into white walled clear bottom 384-well microplates for compound profiling. For profiling, cells were seeded at a density of 10000 cells per well in a total volume of 20 μL and were allowed to adhere and recover overnight prior to compound addition. Cells were treated the following day using the protocols shown below. cAMP modulation was determined using the DiscoveRx HitHunter cAMP XS+ assay.
# Media was aspirated from cells and replaced with 10 μL 1:1 HBSS/Hepes: cAMP XS+Ab reagent. Agonist (CP55,940) dose curves were performed to determine the EC20 value for the following testing with compounds. 5 μL of 4× agonist was added to each well with an equal concentration of vehicle present. EC20 agonist concentration was determined directly from agonist dose curve.
# For allosteric determination, cells were preincubated with compound followed by agonist challenge at the EC20 concentration. 5 μL of 4× compound was added to cells and incubated at 37° C. for 30 minutes. 5 μL of 4× EC20 agonist was added to cells and incubated at 37° C. for 30 minutes.
# Signal Detection: After appropriate compound incubation, assay signal was generated through incubation with 20 μL cAMP XS+ED/CL lysis cocktail for one hour followed by incubation with 20 μL cAMP XS+EA reagent for three hours at room temperature. Microplates were read following signal generation with a PerkinElmer Envision™ instrument for chemiluminescent signal detection.
# Data Analysis: Dose curves were plotted using GraphPad Prism or Activity Base. The percentage activity is calculated using the following formula: % Activity=100%×(1−(mean RLU of test sample−mean RLU of MAX control)/(mean RLU of vehicle control [EC20 for PAM]−mean RLU of MAXcontrol).
# Agonist (CP55,940) dose curves were performed for the CNR1 PathHunter and cAMP Hunter cell lines. […] The cAMP assay was performed in the presence of 20 μM forskolin (EC80).
# Chain of CB1 cannabinoid receptors (CNR1 cAMP Hunter cell line) (P21554 whole entry): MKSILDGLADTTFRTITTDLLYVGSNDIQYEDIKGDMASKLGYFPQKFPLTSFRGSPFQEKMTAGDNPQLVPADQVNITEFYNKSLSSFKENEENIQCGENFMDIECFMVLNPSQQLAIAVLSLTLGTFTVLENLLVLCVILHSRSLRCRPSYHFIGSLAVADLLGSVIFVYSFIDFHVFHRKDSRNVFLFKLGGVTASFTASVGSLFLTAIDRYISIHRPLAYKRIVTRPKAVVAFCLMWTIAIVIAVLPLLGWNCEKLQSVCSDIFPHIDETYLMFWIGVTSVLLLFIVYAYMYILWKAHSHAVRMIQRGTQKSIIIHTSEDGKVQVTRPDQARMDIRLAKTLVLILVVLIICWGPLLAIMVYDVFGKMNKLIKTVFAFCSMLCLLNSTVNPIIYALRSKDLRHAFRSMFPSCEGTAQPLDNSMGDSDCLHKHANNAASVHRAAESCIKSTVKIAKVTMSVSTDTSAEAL
Compound,pEC50,Emax
"O=[N+]([O-])CC(c1ccccc1)c1c(-c2ccc(F)c(Cl)c2)[nH]c2ccccc12 (stereo not shown) [Compound 15, 2-(3-Chloro-4-fluorophenyl)-3-(2-nitro-1-phenylethyl)-1H-indole]",6.39,110%
"O=[N+]([O-])C[C@H](c1ccccn1)c1c(-c2ccccc2)[nH]c2ccccc12 (single isomer, unassigned) [Compound 11]",6.52,120%
"O=[N+]([O-])C[C@H](c1ccccc1)c1c(-c2ccccc2)[nH]c2ccccc12 (single isomer, unassigned) [Compound 2]",–,75%
"O=[N+]([O-])CC(c1ccccc1)c1c(-c2ccc(Cl)cc2)[nH]c2ccccc12 (stereo not shown) [Compound 14, 2-(4-Chlorophenyl)-3-(2-nitro-1-phenylethyl)-1H-indole]",6.19,115%
"O=[N+]([O-])CC(c1ccccc1)c1c(-c2ccccc2)[nH]c2ccc(Cl)cc12 (stereo not shown) [Compound 7, 5-Chloro-3-(2-nitro-1-phenylethyl)-2-phenyl-1H-indole]",6.00,44%
"O=[N+]([O-])CC(c1ccccc1)c1c(-c2ccccc2)[nH]c2ccccc12 (racemic) [Compound 1, 3-(2-Nitro-1-phenylethyl)-2-phenyl-1H-indole, reference compound]",–,80%
"O=[N+]([O-])CC(c1ccccc1)c1cn(-c2ccccc2)c2ccccc12 (stereo not shown) [Compound 9, 3-(2-Nitro-1-phenylethyl)-1-phenyl-1H-indole]",6.04,105%
O=[N+]([O-])CC(c1ccccc1)c1c(-c2ccc3ccccc3c2)[nH]c2ccccc12 (stereo not shown) [Compound 6],6.13,65%
"O=[N+]([O-])CC(c1ccc(N2CCCCC2)cc1)c1c(-c2ccccc2)[nH]c2ccccc12 (stereo not shown) [Compound 4, 3-(2-Nitro-1-(4-(piperidin-1-yl)phenyl)ethyl)-2-phenyl-1H-indole]",6.23,101%
"O=[N+]([O-])C[C@@H](c1ccccc1)c1c(-c2ccccc2)[nH]c2ccccc12 (single isomer, unassigned) [Compound 3]",–,96%
"O=[N+]([O-])CC(c1ccc(-c2ccccc2)cc1)c1c(-c2ccccc2)[nH]c2ccccc12 (stereo not shown) [Compound 5, 3-(1-([1,1′-Biphenyl]-4-yl)-2-nitroethyl)-2-phenyl-1H-indole]",< 5.00,0%
"O=[N+]([O-])c1cccc(-c2c(-c3ccccc3)[nH]c3ccccc23)c1 [Compound 8, 3-(3-Nitrophenyl)-2-phenyl-1H-indole]",< 5.00,54%
"O=[N+]([O-])C[C@@H](c1ccccn1)c1c(-c2ccccc2)[nH]c2ccccc12 (single isomer, unassigned) [Compound 12]",6.38,119%
"O=[N+]([O-])CC(c1ccccn1)c1c(-c2ccccc2)[nH]c2ccccc12 (racemic) [Compound 10, 3-(2-Nitro-1-(pyridin-2-yl)ethyl)-2-phenyl-1H-indole]",6.34,96%
"O=[N+]([O-])CC(c1ccccc1)c1c(-c2ccc(F)cc2)[nH]c2ccccc12 (stereo not shown) [Compound 13, 2-(4-Fluorophenyl)-3-(2-nitro-1-phenylethyl)-1H-indole]",6.49,110%
